# Data reported in patent US8318792B2, “Therapeutic agent for amyotrophic lateral sclerosis” (Nippon Medical School Foundation, priority 2006, dated 2012).
# Tests used:
# Format in all cases: in vivo, mouse
# G1H-G93A transgenic mice [1] = assay: Exercise tolerance test: rotarod test; conditions: for Rotarod test score: 5 mg/kg oral daily from 80th day (before onset), score 0-3
# Experimental: (§1) The following five kinds of exercise tolerance tests were conducted every fifth day from the 70th day after birth to evaluate the ability to exercise in the respective exercise tolerance tests. That is, the days for the exercise tolerance tests were every fifth days, such as the 70th day, 75th day, 80th day, 85th day and so on, after birth. The exercise tolerance tests were conducted throughout the survival period, and the post-mortem evaluation was based on the definitions of the following five kinds of exercise tolerance tests.
# The apparatus used in the Rotarod test (Rota Rod Treadmill type 7600, Ugo Basile Co., Milano, Italy) is a rotating axle having a diameter of 3.6 cm, and this rotating axle is set up so as to have 16 revolution per minute (one rotation: 3.75 seconds). The period for which a mouse can remain on a rotating axle without falling is measured. The evaluation of the rotarod test for the mouse was performed based on the following criteria: Score 0=The time exceeds 60 seconds; Score 1=The time is more than 30 seconds and 60 seconds or less; Score 2=The time is more than 4 seconds and 30 seconds or less; and Score 3=The time is 4 seconds or less. The post-mortem evaluation of the rotarod test is defined as score 3.
# G1H-G93A transgenic mice [2] = assay: Exercise tolerance test: beam balance test; conditions: 5 mg/kg oral daily from 80th day (before onset), score 0-2
# Experimental: as §1
# The apparatus used in the beam balance test is constructed by maintaining a wooden beam having a diameter of 1.5 cm horizontally, and installing platforms which serve as footholds, on the respective sides in a distance of 30 cm. A mouse is placed on the platform on one side, and the time taken by the mouse to cross over the beam which is 30 cm in length and to arrive at the platform on the opposite side is measured. The evaluation of the beam balance test for the mouse was performed based on the following criteria: Score 0=The time is 10 seconds or less; Score 1=The time is more than 10 seconds to 15 seconds; and Score 2=The time is more than 15 seconds, or the mouse falls down. The post-mortem evaluation of the beam balance test is defined as score 2.
# G1H-G93A transgenic mice [3] = assay: Histopathological study: number of spinal cord anterior horn cells; conditions: end stage; for difference to placebo group in number of spinal cord anterior horn cells (cervical, thoracic or lumbar segment): P>0.05, Mann-Whitney's U test; for number of spinal cord anterior horn cells in the cervical segment / number of spinal cord anterior horn cells in the lumbar segment / number of spinal cord anterior horn cells in the thoracic segment: per five HE sections, average±SD
# Experimental: The mouse supplied to the experiment is anesthetized by intraperitoneal injection of pentobarbital sodium in an amount of 1 mL per kg of the mouse body weight. After confirming that the mouse is completely under anesthesia, laparotomy and thoracotomy are performed, and blood is completely removed from the visceral organs of the whole body by perfusion of physiological saline at 37° C. via the left ventricle and aorta. The complete removal of blood from the visceral organs of the whole body is carried out by confirming complete removal of the blood of the aorta in the thoracic part and abdominal part, mesenteric arteries, liver, kidneys, and small arteries on the surfaces of the stomach, small intestine and large intestine under direct visual inspection. Subsequently, perfusion of 50 mL of physiological saline at 37° C. is performed. Immediately thereafter, the perfusion is performed with a fixative (4% paraformaldehyde supplemented with 0.1 M cacodylate buffer, pH 7.4). The spinal cord is removed and re-fixed with the same fixative for 18 hours. After the fixation of spinal cord tissue, each spinal cord segments is cut out to examine the spinal cord tissue. For the detailed analyses of spinal cord tissues, two segments of the cervical spinal cord (upper and lower cervical segments), three segments of the thoracic spinal cord (upper, middle, and lower thoracic segments), and two segments of lumbar spinal cord (upper and lower lumbar segments) were cut out to provide seven segments in total. Each spinal cord segments are respectively embedded in paraffin to produce paraffin blocks, and then cut into paraffin sections having a thickness of 5 μm using a microtome. The paraffin sections are subjected to hematoxylin and eosin (HE) staining.
# For a quantitative analysis, serial 25 paraffin sections having a thickness of 5 μm were produced in series from the respective segment paraffin blocks of the spinal cord, and the 1st section, 7th section, 13th section, 19th section and 25th section were selected and subjected to HE staining. Specifically, paraffin sections were selected such that one paraffin section was taken at a […], and 5 HE preparations were produced from a single spinal cord segments. Therefore, 10 HE preparations from two areas for the entire cervical spinal cord, 15 HE preparations from three areas for the entire thoracic spinal cord, and 10 HE preparations from two areas for the entire lumbar spinal cord, were produced.
# In order to calculate the number of motor neurons in the anterior horn, all of the HE stained sections were observed under a light microscope (BX41: Olympus Corp., Tokyo, Japan) equipped with a 3CCD digital color camera system for the microscope (FX380: Olympus Corp., Tokyo, Japan). Subsequently, photographs of the anterior horn region (corresponding to VII, VIII and IX Rexed areas) in the HE stained sections of the respective myelomere tissues of the spinal cord were taken, and the images were analyzed using an image analysis-filing software (FLVFS-LS Ver. 1.12: Olympus Corp., Tokyo, Japan). In regard to the definition of the motor neuron in the anterior horn of spinal cord (spinal cord anterior horn cells), cells in the HE stained sections, which have a nucleus carrying a definite nucleolus and contain a cell body having a diameter of 25 μm or more, were selected as the spinal cord anterior horn cells (Klivenyi P, et al., Nature Med 1999; 5:347-351, Kong J & Xu Z, J Neurosci 1998; 18:3241-3250, and Stephens B, et al., Neuropathol Appl Neurobiol 2001; 27:352-361). Based on this definition, the number of spinal cord anterior horn cells was counted for each of the HE stained sections. The respective numbers of spinal cord anterior horn cells in the cervical spinal cord, thoracic spinal cord and lumbar spinal cord of one mouse was calculated from the total number of spinal cord anterior horn cells in five HE stained sections. […]
# [4] = from the 130th day to 140th day after birth
# [5] = 5 mg/kg oral daily from 80th day after birth (before onset)
# [6] = 5 mg/kg oral daily from the day of onset (after onset)
compound,measurement,setting,value
"CC(C)(C)COc1ccc(-n2cc(C(=O)O)cn2)cc1C#N [compound (a), 1-[3-cyano-4-(2,2-dimethylpropoxy)phenyl]-1H-pyrazole-4-carboxylic acid]",Rotarod test score,"G1H-G93A transgenic mice [1]; 70th day after birth, 5 mg/kg",0.0±0.0
same,Rotarod test score,"G1H-G93A transgenic mice [1]; 75th day after birth, 5 mg/kg",0.0±0.0
same,Rotarod test score,"G1H-G93A transgenic mice [1]; 80th day after birth, 5 mg/kg",0.0±0.0
same,Rotarod test score,"G1H-G93A transgenic mice [1]; 85th day after birth, 5 mg/kg",0.0±0.0
same,Rotarod test score,"G1H-G93A transgenic mice [1]; 90th day after birth, 5 mg/kg",0.0±0.0
same,Rotarod test score,"G1H-G93A transgenic mice [1]; 95th day after birth, 5 mg/kg",0.0±0.0
same,Rotarod test score,"G1H-G93A transgenic mice [1]; 100th day after birth, 5 mg/kg",0.0±0.0
same,Rotarod test score,"G1H-G93A transgenic mice [1]; 105th day after birth, 5 mg/kg",0.0±0.0
same,effect in rotarod test as compared to placebo group,"G1H-G93A transgenic mice [1]; 105th, 110th and 115th day, 5 mg/kg oral daily from 80th day after birth, Mann-Whitney's U test",significant effects
same,Rotarod test score,"G1H-G93A transgenic mice [1]; 110th day after birth, 5 mg/kg",0.3±0.7
same,Rotarod test score,"G1H-G93A transgenic mice [1]; 115th day after birth, 5 mg/kg",1.2±1.3
same,Rotarod test score,"G1H-G93A transgenic mice [1]; 120th day after birth, 5 mg/kg",2.2±0.9
same,Rotarod test score,"G1H-G93A transgenic mice [1]; 125th day after birth, 5 mg/kg",2.7±0.5
same,Rotarod test score,G1H-G93A transgenic mice [1]; 130th day after birth,3.0 ± 0.0
same,Rotarod test score,G1H-G93A transgenic mice [1]; 135th day after birth,3.0 ± 0.0
same,Rotarod test score,G1H-G93A transgenic mice [1]; 140th day after birth,3.0 ± 0.0
same,Rotarod test score,G1H-G93A transgenic mice [1]; [4],3.0±0.0
same,Beam balance test score,"G1H-G93A transgenic mice [2]; 70th day after birth, 5 mg/kg",0.0±0.0
same,Beam balance test score,"G1H-G93A transgenic mice [2]; 75th day after birth, 5 mg/kg",0.0±0.0
same,Beam balance test score,"G1H-G93A transgenic mice [2]; 80th day after birth, 5 mg/kg",0.0±0.0
same,Beam balance test score,"G1H-G93A transgenic mice [2]; 85th day after birth, 5 mg/kg",0.0±0.0
same,Beam balance test score,"G1H-G93A transgenic mice [2]; 90th day after birth, 5 mg/kg",0.0±0.0
same,Beam balance test score,"G1H-G93A transgenic mice [2]; 95th day after birth, 5 mg/kg",0.0±0.0
same,Beam balance test score,"G1H-G93A transgenic mice [2]; 100th day after birth, 5 mg/kg",0.0±0.0
same,Beam balance test score,"G1H-G93A transgenic mice [2]; 105th day after birth, 5 mg/kg",0.0±0.0
same,Beam balance test score,"G1H-G93A transgenic mice [2]; 110th day after birth, 5 mg/kg",0.1±0.3
same,Beam balance test score,"G1H-G93A transgenic mice [2]; 115th day after birth, 5 mg/kg",0.7±0.8
same,Beam balance test score,"G1H-G93A transgenic mice [2]; 120th day after birth, 5 mg/kg",1.2±0.9
same,Beam balance test score,"G1H-G93A transgenic mice [2]; 125th day after birth, 5 mg/kg",1.7±0.5
same,Beam balance test score,G1H-G93A transgenic mice [2]; 130th day after birth,2.0 ± 0.0
same,Beam balance test score,G1H-G93A transgenic mice [2]; 135th day after birth,2.0 ± 0.0
same,Beam balance test score,G1H-G93A transgenic mice [2]; 140th day after birth,2.0 ± 0.0
same,Beam balance test score,G1H-G93A transgenic mice [2]; [4],2.0±0.0
same,"difference to placebo group in number of spinal cord anterior horn cells (cervical, thoracic or lumbar segment)",G1H-G93A transgenic mice [3]; [5],no significant difference
same,"difference to placebo group in number of spinal cord anterior horn cells (cervical, thoracic or lumbar segment)",G1H-G93A transgenic mice [3]; [6],no significant difference
same,number of spinal cord anterior horn cells in the cervical segment,G1H-G93A transgenic mice [3]; [5],3.3±3.1
same,number of spinal cord anterior horn cells in the lumbar segment,G1H-G93A transgenic mice [3]; [5],3.7±3.3
same,number of spinal cord anterior horn cells in the thoracic segment,G1H-G93A transgenic mice [3]; [5],1.6±2.1
same,number of spinal cord anterior horn cells in the cervical segment,G1H-G93A transgenic mice [3]; [6],4.8±3.7
same,number of spinal cord anterior horn cells in the lumbar segment,G1H-G93A transgenic mice [3]; [6],4.1±4.4
same,number of spinal cord anterior horn cells in the thoracic segment,G1H-G93A transgenic mice [3]; [6],2.3±2.2
